Data on six compounds can be found in PubChem BioAssay AID1259407 (Chemical Carcinogenesis Research Information System (CCRIS), 2018).

The test system of the data set is CCRIS mutagenicity, Ames/micronucleus/aberration tests. The experiment in a line: CCRIS mutagenicity studies. An excerpt: The CCRIS database contains chemical records with carcinogenicity, mutagenicity, tumor promotion, and tumor inhibition test results. It was developed by the National Cancer Institute (NCI). Data are derived from studies cited in primary journals, current awareness tools, NCI reports, and other sources. Test results have been reviewed by experts in carcinogenesis and mutagenesis.
CCRIS provides historical information from the years 1985 - 2011. It is no longer updated.
This is an archive assay for CCRIS mutagenicity studies.

Setting [1] is: Test System: AMES SALMONELLA TYPHIMURIUM, Strain/Indicator: TA98, Metabolic Activation: NONE, Method: PREINCUBATION
Where [2] appears, read: Test System: AMES SALMONELLA TYPHIMURIUM, Strain/Indicator: TA100, Metabolic Activation: NONE, Method: PREINCUBATION

Active and inactive are the calls of the source. How the calls were made is not given here.

As for `Cc1cccc(C(=O)Cl)c1`, the mutagenic call under setting [1] was “inactive; negative”; the mutagenic call (Test System: AMES SALMONELLA TYPHIMURIUM, Strain/Indicator: TA98, Metabolic Activation: RAT LIVER S-9, PCB, Method: PREINCUBATION) is “inactive; negative”; the mutagenic call under setting [2] is “inactive; negative”; the mutagenic call (Test System: AMES SALMONELLA TYPHIMURIUM, Strain/Indicator: TA100, Metabolic Activation: RAT LIVER S-9, PCB, Method: PREINCUBATION) was “active; positive”; the mutagenic call (Test System: AMES SALMONELLA TYPHIMURIUM, Strain/Indicator: TA104, Metabolic Activation: NONE, Method: PREINCUBATION) was “active; positive”; the mutagenic call (Test System: AMES SALMONELLA TYPHIMURIUM, Strain/Indicator: TA104, Metabolic Activation: RAT LIVER S-9, PCB, Method: PREINCUBATION) was “active; positive”. For the same compound, the mutagenic call by setting is: (Test System: E.COLI, Strain/Indicator: WP2 UVRA, Metabolic Activation: NONE, Method: PREINCUBATION) “active; positive”; (Test System: E.COLI, Strain/Indicator: WP2 UVRA, Metabolic Activation: RAT LIVER S-9, PCB, Method: PREINCUBATION) “active; positive”.

Consider `Cc1ccc2nc3n(C)c4ccc(C)cc4c(C)c-3c2c1`, for which the mutagenic call (Test System: AMES SALMONELLA TYPHIMURIUM, Strain/Indicator: TA98, Metabolic Activation: RAT, LIVER, S-9, AROCLOR 1254, Method: STANDARD PLATE) is “active; positive”.

Turning to `NC(CS)C(=O)O` (stereo not given), the mutagenic call (Test System: AMES SALMONELLA TYPHIMURIUM, Strain/Indicator: TA98, Metabolic Activation: RAT LIVER S-9, CHLOROPHENE, Method: STANDARD PLATE (COMPOUND HEATED AT 250 DEGREES CELSIUS FOR 20 MIN)) was “inactive; negative”.

Consider `Nc1nc(=S)c2[nH]cnc2[nH]1`, for which the mutagenic call (End Point: IN VITRO CHROMOSOMAL ABERRATIONS, Test System: HUMAN HCT116/3-6 CELLS, Metabolic Activation: NONE) was “active; positive”; the mutagenic call (End Point: IN VITRO CHROMOSOMAL ABERRATIONS, Test System: HUMAN HCT116 CELLS, Metabolic Activation: NONE) is “active; positive”; the mutagenic call (End Point: IN VITRO CHROMOSOMAL ABERRATIONS, Test System: HUMAN MT1 CELLS, Metabolic Activation: NONE) was “active; positive”; the mutagenic call (End Point: IN VITRO CHROMOSOMAL ABERRATIONS, Test System: HUMAN TK6 CELLS, Metabolic Activation: NONE) is “active; positive”.

Regarding `Nc1ccccc1C(=O)OC/C=C/c1ccccc1`, the mutagenic call (End Point: IN VITRO CHROMOSOMAL ABERRATIONS, Test System: CHINESE HAMSTER LUNG FIBROBLAST CELLS (CHL/IU), Metabolic Activation: NONE) is “inactive; negative”; the mutagenic call (End Point: IN VITRO CHROMOSOMAL ABERRATIONS, Test System: CHO CELLS, Metabolic Activation: NONE) was “inactive; negative”; the mutagenic call (End Point: IN VITRO CHROMOSOMAL ABERRATIONS, Test System: CHO CELLS, Metabolic Activation: RAT, LIVER, S-9, AROCLOR 1254) is “inactive; negative”; the mutagenic call (Test System: AMES SALMONELLA TYPHIMURIUM, Strain/Indicator: TA97, Metabolic Activation: HAMSTER, LIVER, S-9, AROCLOR 1254 (10%), Method: PREINCUBATION) was “inactive; negative”; the mutagenic call (Test System: AMES SALMONELLA TYPHIMURIUM, Strain/Indicator: TA97, Metabolic Activation: HAMSTER, LIVER, S-9, AROCLOR 1254 (30%), Method: PREINCUBATION) was “inactive; negative”; the mutagenic call (Test System: AMES SALMONELLA TYPHIMURIUM, Strain/Indicator: TA97, Metabolic Activation: NONE, Method: PREINCUBATION) is “inactive; negative”. Also, the mutagenic call runs as follows: (Test System: AMES SALMONELLA TYPHIMURIUM, Strain/Indicator: TA97, Metabolic Activation: RAT, LIVER, S-9, AROCLOR 1254 (10%), Method: PREINCUBATION) “inactive; negative”; (Test System: AMES SALMONELLA TYPHIMURIUM, Strain/Indicator: TA97, Metabolic Activation: RAT, LIVER, S-9, AROCLOR 1254 (30%), Method: PREINCUBATION) “inactive; negative”; (Test System: AMES SALMONELLA TYPHIMURIUM, Strain/Indicator: TA98, Metabolic Activation: HAMSTER, LIVER, S-9, AROCLOR 1254 (10%), Method: PREINCUBATION) “inactive; negative”; (Test System: AMES SALMONELLA TYPHIMURIUM, Strain/Indicator: TA98, Metabolic Activation: HAMSTER, LIVER, S-9, AROCLOR 1254 (30%), Method: PREINCUBATION) “inactive; negative”; under setting [1], “inactive; negative”; (Test System: AMES SALMONELLA TYPHIMURIUM, Strain/Indicator: TA98, Metabolic Activation: RAT, LIVER, S-9, AROCLOR 1254 (10%), Method: PREINCUBATION) “inactive; negative”. The mutagenic call runs as follows: (Test System: AMES SALMONELLA TYPHIMURIUM, Strain/Indicator: TA98, Metabolic Activation: RAT, LIVER, S-9, AROCLOR 1254 (30%), Method: PREINCUBATION) “inactive; negative”; (Test System: AMES SALMONELLA TYPHIMURIUM, Strain/Indicator: TA100, Metabolic Activation: HAMSTER, LIVER, S-9, AROCLOR 1254 (10%), Method: PREINCUBATION) “inactive; negative”; (Test System: AMES SALMONELLA TYPHIMURIUM, Strain/Indicator: TA100, Metabolic Activation: HAMSTER, LIVER, S-9, AROCLOR 1254 (30%), Method: PREINCUBATION) “inactive; negative”; under setting [2], “inactive; negative”; (Test System: AMES SALMONELLA TYPHIMURIUM, Strain/Indicator: TA100, Metabolic Activation: RAT, LIVER, S-9, AROCLOR 1254 (10%), Method: PREINCUBATION) “inactive; negative”; (Test System: AMES SALMONELLA TYPHIMURIUM, Strain/Indicator: TA100, Metabolic Activation: RAT, LIVER, S-9, AROCLOR 1254 (30%), Method: PREINCUBATION) “inactive; negative”. Also, the mutagenic call was “inactive; negative” (Test System: AMES SALMONELLA TYPHIMURIUM, Strain/Indicator: TA1535, Metabolic Activation: HAMSTER, LIVER, S-9, AROCLOR 1254 (10%), Method: PREINCUBATION); “inactive; negative” (Test System: AMES SALMONELLA TYPHIMURIUM, Strain/Indicator: TA1535, Metabolic Activation: HAMSTER, LIVER, S-9, AROCLOR 1254 (30%), Method: PREINCUBATION); “inactive; negative” (Test System: AMES SALMONELLA TYPHIMURIUM, Strain/Indicator: TA1535, Metabolic Activation: NONE, Method: PREINCUBATION); “inactive; negative” (Test System: AMES SALMONELLA TYPHIMURIUM, Strain/Indicator: TA1535, Metabolic Activation: RAT, LIVER, S-9, AROCLOR 1254 (10%), Method: PREINCUBATION); “inactive; negative” (Test System: AMES SALMONELLA TYPHIMURIUM, Strain/Indicator: TA1535, Metabolic Activation: RAT, LIVER, S-9, AROCLOR 1254 (30%), Method: PREINCUBATION); “inactive; negative” (Test System: E. COLI, Strain/Indicator: WP2 UVRA, Metabolic Activation: HAMSTER, LIVER, S-9, AROCLOR 1254, Method: STANDARD PLATE). Further, the mutagenic call by setting is: (Test System: E. COLI, Strain/Indicator: WP2 UVRA, Metabolic Activation: NONE, Method: STANDARD PLATE) “inactive; negative”; (Test System: Mouse lymphoma, Strain/Indicator: L5178Y (tk+/tk-), Metabolic Activation: None, Method: Suspension/plate) “inactive; negative”; (Test System: Mouse lymphoma, Strain/Indicator: L5178Y (tk+/tk-), Metabolic Activation: Rat, Liver, S-9, Aroclor 1254, Method: Suspension/plate) “active; equivocal (previous evaluation positive)”; (Test System: UDS RAT HEPATOCYTES, Strain/Indicator: BROMODEOXYURIDINE INCORP, Metabolic Activation: NONE, Method: FLOW CYTOMETRIC ANALYSIS) “inactive; negative”; (Test System: UDS RAT HEPATOCYTES, Strain/Indicator: THY INCORP, Metabolic Activation: NONE, Method: AUTORADIOGRAPHY) “inactive; negative”.

Take `COc1ccc2c(c1)[C@H]1CCCC[C@@H]1[C@@H]1O[C@H]21`: the mutagenic call runs as follows: (Test System: AMES SALMONELLA TYPHIMURIUM, Strain/Indicator: TA98, Metabolic Activation: NONE, Method: STANDARD PLATE) “inactive; negative”; (Test System: AMES SALMONELLA TYPHIMURIUM, Strain/Indicator: TA100, Metabolic Activation: NONE, Method: STANDARD PLATE) “inactive; negative”.
